Data set [1] relates to A549 cells. As to the kind of experiment: Cell viability assay, A549 cells. It counts as cell-based, human. Particulars: dose-dependent experiments, 0.1-10 μM. The method, then:
Cell viability was assessed with CellTiter 96® AQueous One Solution Cell Proliferation Assay (Promega, Madison, Wis.) according to according to the supplier's instructions. […] The optical density (OD) was measured using a Multilabel Counter (Bio-Rad) at a wavelength of 490 nm and cell viability was calculated by the following formula: Cell viability (%)=(OD treated cells/OD control cells)×100%. FACS Analysis

Data set [2] deals with A549 cells. In words: Apoptosis assay by PI staining and FACS. Particulars: A549, 24 hs or 48 hs. The class given is cell-based, human. Details: dose or concentration left out as unconfirmed. The protocol: For apoptosis assay, DNA content analysis was performed by staining with propidium iodide (PI) and analyzing cells by flow cytometry (FACS).
[…] Cells were incubated with 2 μg/ml propidium iodide (PI, Sigma, St. Louis, Mo.) for 30 min at 4° C. and recovered. The relative proportion of cells with DNA content indicative of apoptosis (ipoploid) was determined by FACS.

In another data set the test system is A431 tumors. In words: Tumor growth in A431 mouse xenograft. The class given is in vivo. Particulars: 200 pmoles intratumoral, three times a week for two weeks. The protocol: Athymic nude mice (nu/nu) were maintained in a sterile environment according to guidelines for Animal Care. Mice were inoculated with either 3×10^6 (in 100 μl) in vitro propagated A431 cells subcutaneously injected into each flank. Approximately 24 non-necrotic tumors for each tumor type, of about 1 cm in diameter, were randomly divided into three groups of eight mice per treatment group as follows: group 1, no treatment; group 2, treated with scrambled RNA as a negative control (200 pmols/injection); group 3, treated with CL4 42-81 (200 pmols/injection). Compounds were injected intra-tumorally in 100-1 μl volumes three times a week for two weeks. Day 0 marks the first day of injection. The aptamers may also be administered systemically, in particular when optimized by addition of polyethylene glycol (PEG).
The volume injections are small enough to preclude the compounds being forced inside the cells due to a nonspecific high-pressure injection. Tumors were measured every 3 days with calipers in three dimensions. The following formula was used to calculate tumor volume: VT=(W×L×H)×0.5236 (W, the shortest dimension; L, the longest dimension; H, the intermediate dimension). The growth curves are plotted as the means tumor volume±s.e.m. Statistical analysis of tumor size data was conducted using a one-way ANOVA. A P-value of 0.05 or less was considered to indicate a significant difference. […]

Another data set has as its target EGFR (Homo sapiens, UniProt P00533). In words: Immunoblot of EGF-dependent EGFR phosphorylation in A549 cells. The class given is cell-based. Details: endogenous in cells; host or cells: A549. The note with it: 200 nM aptamer, following 5 min of EGFR stimulation. The protocol:
[…] The aptamers were subjected to a short denaturation-renaturation step (85° C. for 5 min, snap-cooled on ice for 2 min, and allowed to warm up to 37° C.) before each treatment. To prepare cell extracts, cells were washed twice in ice-cold PBS, and lysed in buffer A (50 mM Tris-HCl pH 8.0 buffer containing 150 mM NaCl, 1% Nonidet P-40, 2 mg/ml aprotinin, 1 mg/ml pepstatin, 2 mg/ml leupeptin, 1 mM Na3VO4). Protein concentration was determined by the Bradford assay using bovine serum albumin as the standard. The cell lysates were subjected to SDS-PAGE. Gels were electroblotted into polyvinylidene difluoride membranes (Millipore Co., Bedford, Mass.), and filters were probed with the indicated primary antibodies: anti-EGFR and anti-phospho-EGFR (Tyr1062), anti-phospho-44/42 MAP kinase (E10) (also indicated as p-Erk), anti-phospho-Akt, anti-Akt and anti-phospho-STAT3 (Tyr705), anti-ErbB2 (all from Cell Signaling, Beverly, Mass., United States); anti-Erk1, anti-EGFR, anti-ErbB3, anti-ErbB4 (C-16) (Santa Cruz Biotechnology, California, United States); anti-α-αtubulin (DM 1A) (Sigma, St. Louis, Mo.).
Proteins were visualized with peroxidase-conjugated secondary antibodies using the enhanced chemiluminescence system (GE Healthcare Bio-Sciences, Uppsala, Sweden). […]

In data set [3] the test system is A549 cells. In words: Binding of [32P]-labeled aptamer on A549 cells. Particulars: binding to A549 target cells. Further details: species or system human. The method, then: Binding experiments were performed with 5′-[^32P]-labeled RNA. For labeling 2′-F-Py RNAs were 5′-end dephosphorylated using bacterial alcaline phosphatase (Invitrogen, Carlsbad, Calif.) before [^32P]-5′-end-labeled using T4 kinase (Invitrogen) and γ-[^32P]-ATP (6×10^3 Ci/mmol, GE Healthcare Bio-Sciences, Uppsala, Sweden) according to the supplier's instructions.
For binding experiments on cells, 3.5×10^4 cells were plated in 24-well plates in triplicate and were incubated with CL4 42-81 aptamer the scrambled sequence used as a negative control at 100 nM concentration in 200 μl of DMEM serum free for 20 min at RT in the presence of 100 μg/ml polyinosine as a nonspecific competitor (Sigma, St. Louis, Mo.). After five washings with 500 μl DMEM, bound sequences were recovered in 300 μl of SDS 1%, and the amount of radioactivity recovered was counted.

For `COc1cc2ncnc(Nc3ccc(F)c(Cl)c3)c2cc1OCCCN1CCOCC1` [gefitinib, reference compound], the “sensitivity of A549 cell viability” value in the data set on A549 cells [1] is listed as “resistant”.
As to “scrambled aptamer: scrambled aptamer used as negative control: 5′ UUCGUACCGGGUAGGUUGGCUUGCACAUAGAACGUGUCA 3′ (SEQ ID NO: 2) (listed as RNA, chemistry not given here) [reference compound]”, in the data set on A549 cells [2], the “effect on percentage of apoptotic cells” value is recorded as “No effect”. Besides, the tumor volume entry in the data set with A431 tumors is recorded as “not observed”. In addition, the “inhibition of EGF-dependent phosphorylation of EGFR” value with EGFR is recorded as “No effect”.

B1: CL4: entire 92 nt aptamer generated by differential cell-SELEX on A549 cells (SEQ ID NO: 4), parent of CL4 42-81 (nucleic acid)
chain: GGGAGACAAGAAUAAACGCUCAACGACACGUUGCCAGCCGGAGCCUUAGUAACGUGCUUUGAUGUCGAUUCGACAGGAGGCUCACAACAGGC
modifications: listed as RNA, chemistry not given here
As to B1, in the data set on A549 cells [3], the affinity, expressed as Kd, was 46 nM.

Values taken from patent publication US9125930B2, “EGFR aptamer inhibitor for use in therapy and diagnosis” (CONSIGLIO NAZIONALE DELLE RICERCHE, priority 2010, dated 2015).
